# Target: T1, S1P1 receptor (human Endothelial Differentiation Gene 1 (EDG1)) (Homo sapiens, UniProt P21453)
# T1 construct: TEV protease site; Gal4-VP16 transcription factor; expressed in transfected cells; host or cells: Tango GPCR-bla U2OS parental cell line (EDG1-bla/U2OS)
# Assay: S1P1 Tango Assay - 384 Well Format (EDG1-bla/U2OS cells)
# Format: cell-based
# Details: agonist, beta-lactamase reporter
# Experimental: Recombinant EDG1-bla/U2OS cells (contain the human Endothelial Differentiation Gene 1 (EDG1) linked to a TEV protease site and a Gal4-VP16 transcription factor stably integrated into the Tango GPCR-bla U2OS parental cell line) were harvested from growth medium and passaged into assay medium (Invitrogen Freestyle Expression Medium). The cells were starved for 24 hours at 37° C., 5% CO2, harvested and resuspended in assay medium at a density of ˜200,000 cells/ml.
# All test compounds were dissolved in DMSO at a concentration of 10 mM and were prepared in 100% DMSO to provide 10 point dose response curves. Test compounds prepared by Bravo (Velocity 11) were added to wells in columns 2-11 and 13-22; DMSO was added to wells in columns 12 and 23 as unstimulated controls and assay medium was added to wells in columns 1 and 24 as cell-free controls. An S1P1 agonist was added to wells in row 2, columns 2-11 as stimulated controls and test compounds were added to wells in row 2, columns 13-22 and rows 3-15, columns 2-11/13-22 (row 1 and 16 were empty and not used). Compounds in solution were added to the assay plate (Greiner 781090) using an Echo (Labcyte) dose-response program (50 nl/well). The unstimulated and cell-free controls were loaded with 50 nl/well pure DMSO to ensure that the DMSO concentration was constant across the plate for all assays.
# 50 μl of the cell suspension was added to each well in columns 2-23 of the plate (˜10,000 cells per well). 50 μl of assay medium was added to each well in the cell-free controls (columns 1 and 24). The cells were incubated overnight at 37° C./5% CO2.
# 10 μl of 6× substrate mixture (LiveBLAzer™-FRET B/G substrate (CCF4-AM) Cat # K1096 from Invitrogen, Inc.) was added to each well using Bravo and the plates incubated at room temperature for 2 h in the dark. The plate was finally read on EnVision using one excitation channel (409 nm) and two emission channels (460 nm and 530 nm).
# The blue/green emission ratio (460 nm/530 nm) was calculated for each well, by dividing the background-subtracted Blue emission values by the background-subtracted Green emission values. The dose response curve is based on sigmoidal dose-response model. All ratio data was normalized based upon the maximum emission ratio of positive control and minimum emission ratio of negative control (DMSO) on each plate. The intrinsic activity (IA) of each compound would be the normalized percentage of its maximum response after curve fitting.
# T1 sequence (P21453 whole entry, the tested form may be a part): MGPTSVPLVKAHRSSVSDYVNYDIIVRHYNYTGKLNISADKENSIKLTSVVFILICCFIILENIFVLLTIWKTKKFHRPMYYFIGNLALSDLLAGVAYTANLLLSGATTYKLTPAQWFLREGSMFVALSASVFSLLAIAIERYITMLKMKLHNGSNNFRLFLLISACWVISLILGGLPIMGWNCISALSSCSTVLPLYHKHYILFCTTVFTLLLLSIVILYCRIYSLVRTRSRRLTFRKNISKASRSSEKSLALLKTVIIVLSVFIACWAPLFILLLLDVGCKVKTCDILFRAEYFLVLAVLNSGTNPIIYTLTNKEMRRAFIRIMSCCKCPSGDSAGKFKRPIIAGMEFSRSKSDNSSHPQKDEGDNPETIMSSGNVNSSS
row,Structure (SMILES),EC50
1,"Cc1cc(OCCCCC(=O)O)ccc1-c1noc(-c2ccc(OC(C)C)c(Cl)c2)n1 [Example 2, 5-{[4-(5-{3-Chloro-4-[(1-methylethyl)oxy]phenyl}-1,2,4-oxadiazol-3-yl)-3-methylphenyl]oxy}pentanoic acid]",≤ 1 nM
2,"Cc1cc(OCC(=O)O)ccc1-c1noc(-c2ccc(OC(C)C)c(Cl)c2)n1 [Example 3, {[4-(5-{3-Chloro-4-[(1-methylethyl)oxy]phenyl}-1,2,4-oxadiazol-3-yl)-3-methylphenyl]oxy}acetic acid]",≤ 1 nM
3,"CNCCOc1ccc(-c2noc(-c3ccc(OC(C)C)c(Cl)c3)n2)c(C)c1 [Example 5, 2-{[4-(5-{3-Chloro-4-[(1-methylethyl)oxy]phenyl}-1,2,4-oxadiazol-3-yl)-3-methylphenyl]oxy}-N-methylethanamine]",≤ 10 nM
4,"CC(C)Oc1ccc(-c2nc(-c3ccc(OCCCCC(=O)O)cc3Cl)no2)cc1C#N [Example 7, 5-{[3-Chloro-4-(5-{3-cyano-4-[(1-methylethyl)oxy]phenyl}-1,2,4-oxadiazol-3-yl)phenyl]oxy}pentanoic acid]",≤ 0.1 nM
5,"CC(C)Oc1ccc(-c2nc(-c3ccc(OCCCCC(=O)O)cc3)no2)cc1C#N [Example 8, 5-{[4-(5-{3-Cyano-4-[(1-methylethyl)oxy]phenyl}-1,2,4-oxadiazol-3-yl)phenyl]oxy}pentanoic acid]",≤ 1 nM
6,"CC(C)Oc1ccc(-c2nc(-c3ccc(OCC(=O)O)cc3Cl)no2)cc1C#N [Example 9, {[3-Chloro-4-(5-{3-cyano-4-[(1-methylethyl)oxy]phenyl}-1,2,4-oxadiazol-3-yl)phenyl]oxy}acetic acid]",≤ 10 nM
7,"COc1cc(OCCCCC(=O)O)ccc1-c1noc(-c2ccc(OC(C)C)c(C#N)c2)n1 [Example 12, 5-{[4-(5-{3-Cyano-4-[(1-methylethyl)oxy]phenyl}-1,2,4-oxadiazol-3-yl)-3-(methyloxy)phenyl]oxy}pentanoic acid]",≤ 1 nM

# Other lines, results leading:
row,EC50,Structure (SMILES)
1,≤ 0.1 nM,"Cc1cc(OCCCC(=O)O)ccc1-c1noc(-c2ccc(OC(C)C)c(Cl)c2)n1 [Example 1, 4-{[4-(5-{3-Chloro-4-[(1-methylethyl)oxy]phenyl}-1,2,4-oxadiazol-3-yl)-3-methylphenyl]oxy}butanoic acid]"
2,≤ 10 nM,"COCCOc1ccc(-c2noc(-c3ccc(OC(C)C)c(Cl)c3)n2)c(C)c1 [Example 6, 5-{3-Chloro-4-[(1-methylethyl)oxy]phenyl}-3-(2-methyl-4-{[2-(methyloxy)ethyl]oxy}phenyl)-1,2,4-oxadiazole]"
3,≤ 0.1 nM,"CC(C)Oc1ccc(-c2nc(-c3ccc(OCCCC(=O)O)cc3Cl)no2)cc1C#N [Example 10, 4-{[3-Chloro-4-(5-{3-cyano-4-[(1-methylethyl)oxy]phenyl}-1,2,4-oxadiazol-3-yl)phenyl]oxy}butanoic acid]"
4,≤ 1 nM,"CC(C)Oc1ccc(-c2nc(-c3ccc(OCCCCC(=O)O)cc3F)no2)cc1C#N [Example 11, 5-{[4-(5-{3-Cyano-4-[(1-methylethyl)oxy]phenyl}-1,2,4-oxadiazol-3-yl)-3-fluorophenyl]oxy}pentanoic acid]"
5,≤ 1000 nM,"CCc1cc(OCCCNC)ccc1-c1nnc(-c2ccc(OC(C)C)c(C#N)c2)s1 [Example 13, 5-[5-(2-ethyl-4-{[3-(methylamino)propyl]oxy}phenyl)-1,3,4-thiadiazol-2-yl]-2-[(1-methylethyl)oxy]benzonitrile]"
6,≤ 100 nM,"CCc1cc(OCCCNC)ccc1-c1nnc(-c2ccc(OC(C)C)c(C#N)c2)o1 [Example 14, 5-[5-(2-ethyl-4-{[3-(methylamino)propyl]oxy}phenyl)-1,3,4-oxadiazol-2-yl]-2-[(1-methylethyl)oxy]benzonitrile]"
7,≤ 1 nM,"CCc1cc(OCCCC(=O)O)ccc1-c1nnc(-c2ccc(OC(C)C)c(C#N)c2)o1 [Example 15, 4-{[4-(5-{3-cyano-4-[(1-methylethyl)oxy]phenyl}-1,3,4-oxadiazol-2-yl)-3-ethylphenyl]oxy}butanoic acid]"

# — US20120101136A1, “5-MEMBERED HETEROARYL DERIVATIVES USED AS SPHINGOSINE 1- PHOSPHATE RECEPTOR AGONISTS” (GLAXO GROUP LIMITED, priority 2009, published 2012)
